Laboratory results as given in the NIST ThermoML archive (doi:10.1021/je400830w).

Legend:
[1] = wn = mass fraction of the nth substance listed; conditions: 100 kPa, Liquid; for mass density: Vibrating tube method
[2] = refractive index (Na D-line) (dimensionless); wn = mass fraction of the nth substance listed; conditions: 100 kPa, Liquid, Standard Abbe refractometry

O=C([O-])[C@@H]1CCCN1.[Na+] [sodium L-prolinate] + O
Conditions | mass density, [1] [kg/m3] | refractive index, [2] | viscosity, [1] [mPa·s]
298.15 K, w1 = 0.05 | 1015.28 | 1.34005 | 1.16
298.15 K, w1 = 0.1 | 1033.9 | 1.34767 | 1.456
298.15 K, w1 = 0.2 | 1071.61 | 1.36337 | 2.292
298.15 K, w1 = 0.3 | 1109.81 | 1.37937 | 3.787
298.15 K, w1 = 0.4 | 1148.69 | 1.39604 | 5.56
303.15 K, w1 = 0.05 | 1013.73 | 1.33942 | 1.02
303.15 K, w1 = 0.1 | 1032.18 | 1.34706 | 1.267
303.15 K, w1 = 0.2 | 1069.51 | 1.36278 | 1.967
303.15 K, w1 = 0.3 | 1106.73 | 1.37869 | 3.327
303.15 K, w1 = 0.4 | 1145.79 | 1.39498 | 4.801
308.15 K, w1 = 0.05 | 1011.98 | 1.33879 | 0.9028
308.15 K, w1 = 0.1 | 1030.28 | 1.34633 | 1.114
308.15 K, w1 = 0.2 | 1067.29 | 1.36201 | 1.702
308.15 K, w1 = 0.3 | 1104.08 | 1.37768 | 2.923
308.15 K, w1 = 0.4 | 1142.83 | 1.39387 | 4.21
313.15 K, w1 = 0.05 | 1010.05 | 1.33802 | 0.8062
313.15 K, w1 = 0.1 | 1028.22 | 1.3456 | 0.984
313.15 K, w1 = 0.2 | 1064.94 | 1.36125 | 1.482
313.15 K, w1 = 0.3 | 1101.95 | 1.37678 | 2.509
313.15 K, w1 = 0.4 | 1139.8 | 1.39268 | 3.53
318.15 K, w1 = 0.05 | 1007.96 | 1.33724 | 0.7245
318.15 K, w1 = 0.1 | 1026.01 | 1.34502 | 0.8784
318.15 K, w1 = 0.2 | 1062.47 | 1.36042 | 1.309
318.15 K, w1 = 0.3 | 1099.31 | 1.37586 | 2.193
318.15 K, w1 = 0.4 | 1136.71 | 1.39154 | 2.997
323.15 K, w1 = 0.05 | 1005.72 | 1.33642 | 0.6556
323.15 K, w1 = 0.1 | 1023.66 | 1.34433 | 0.7874
323.15 K, w1 = 0.2 | 1059.89 | 1.35984 | 1.164
323.15 K, w1 = 0.3 | 1096.7 | 1.37526 | 1.94
323.15 K, w1 = 0.4 | 1133.56 | 1.39048 | 2.581
328.15 K, w1 = 0.05 | 1003.32 | 1.33569 | 0.5983
328.15 K, w1 = 0.1 | 1021.18 | 1.34373 | 0.7118
328.15 K, w1 = 0.2 | 1057.21 | 1.35931 | 1.038
328.15 K, w1 = 0.3 | 1092.78 | 1.37439 | 1.69
328.15 K, w1 = 0.4 | 1130.34 | 1.38912 | 2.241
333.15 K, w1 = 0.05 | 1000.79 | 1.33497 | 0.5454
333.15 K, w1 = 0.1 | 1018.58 | 1.34306 | 0.6471
333.15 K, w1 = 0.2 | 1054.42 | 1.35882 | 0.9221
333.15 K, w1 = 0.3 | 1090.33 | 1.37364 | 1.519
333.15 K, w1 = 0.4 | 1127.09 | 1.38795 | 1.96
338.15 K, w1 = 0.05 | 998.13 | 1.33424 | 0.5008
338.15 K, w1 = 0.1 | 1015.87 | 1.34256 | 0.593
338.15 K, w1 = 0.2 | 1051.56 | 1.35866 | 0.8345
338.15 K, w1 = 0.3 | 1088.2 | 1.37322 | 1.361
338.15 K, w1 = 0.4 | 1123.8 | 1.38677 | 1.728
343.15 K, w1 = 0.05 | 995.35 | 1.33349 | 0.4617
343.15 K, w1 = 0.1 | 1013.04 | 1.34213 | 0.5426
343.15 K, w1 = 0.2 | 1048.61 | 1.35842 | 0.7524
343.15 K, w1 = 0.3 | 1085.34 | 1.37279 | 1.203
343.15 K, w1 = 0.4 | 1120.46 | 1.38566 | 1.536
